Like-named read-outs stand apart in the source and are kept apart here.
System: Ramos B-Cell Line Stimulated with IL-4 (JAK-1 and JAK-3 / Stat-6, CD23)
Test: Assay for Ramos B-Cell Line Stimulated with IL-4 (CD23 upregulation, FACS)
Type: cell-based
Settings: human Ramos B cells, compound 1 hour, IL-4 50 units/mL for 20-24 hours, anti-CD23-PE FACS, read-out: Example 2 (IC50)
In short: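 Human Ramos B cells (5×10^4 per point, RPMI with 5% serum) pre-incubated 1 hour at 37° C with compound or DMSO, then stimulated with IL-4 at 50 units/mL final for 20-24 hours. CD23 upregulation measured by flow cytometry.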

Compound	IC50	IC50 (Homo sapiens, Ramos)
CNC(=O)COc1cccc(Nc2ncc(F)c(Nc3ccc4c(c3)N(CC#N)C(=O)CO4)n2)c1 [II-11, N4-(4-Cyanomethyl-3-oxo-2H-benzo[1,4]oxazin-6-yl)-5-fluoro-N2-[3-(N-methylaminocarbonylmethyleneoxy)phenyl]-2,4-pyrimidinediamine]	28 nM	–
CNC(=O)COc1cccc(Nc2ncc(F)c(Nc3ccc4c(c3)N(CC#N)C(=O)CS4)n2)c1 [II-12, N4-(4-Cyanomethyl-3-oxo-2H-benzo[1,4]thiazin-6-yl)-5-fluoro-N2-[3-(N-methylaminocarbonylmethyleneoxy)phenyl]-2,4-pyrimidinediamine]	36.2 nM	–
CNC(=O)COc1cccc(Nc2ncc(F)c(Nc3ccc4c(c3)N(Cc3ccccn3)C(=O)CO4)n2)c1 [II-14, 5-Fluoro-N2-[3-(N-methylaminocarbonylmethyleneoxy)phenyl]-N4-[3-oxo-4-(2-pyridinylmethyl)-2H-benzo[1,4]oxazin-6-yl]-2,4-pyrimidinediamine]	672 nM	–
COc1cc(Nc2ncc(F)c(Nc3ccc4c(c3)NC(=O)C(C)(C)O4)n2)cc(OCC#N)c1OC [II-15, N2-(3-Cyanomethoxy-4,5-dimethoxyphenyl)-N4-(2,2-dimethyl-3-oxo-4H-benzo[1,4]oxazin-6-yl)-5-fluoro-2,4-pyrimidinediamine]	–	69.3 nM
CNC(=O)COc1cc(Nc2ncc(F)c(Nc3ccc4c(c3)NC(=O)CS4)n2)cc(OC)c1OC [II-19, N2-[4,5-Dimethoxy-3-(N-methylaminocarbonylmethyleneoxy)phenyl]-5-Fluoro-N4-(3-oxo-2H,4H-benzo[1,4]thiazin-6-yl)-2,4-pyrimidinediamine]	95 nM	–
CNC(=O)COc1cc(Nc2ncc(F)c(Nc3ccc4c(c3)NC(=O)C(F)(F)O4)n2)cc(OC)c1OC [II-20, N4-(2,2-Difluoro-3-oxo-4H-benzo[1,4]oxazin-6-yl)-N2-[4,5-Dimethoxy-3-(N-methylaminocarbonylmethyleneoxy)phenyl]-5-fluoro-2,4-pyrimidinediamine]	480 nM	–
CNC(=O)COc1cc(Nc2ncc(F)c(Nc3ccc4c(n3)NC(=O)C(C)(C)O4)n2)cc(OC)c1OC [II-21, N2-[4,5-Dimethoxy-3-(N-methylaminocarbonylmethyleneoxy)phenyl]-N4-(2,2-dimethyl-3-oxo-4H-5-pyrido[1,4]oxazin-6-yl)-5-fluoro-2,4-pyrimidinediamine]	130 nM	–
CNC(=O)COc1cc(Nc2ncc(F)c(Nc3ccc4c(c3)NC(=O)CO4)n2)cc(OC)c1OC [II-22, N2-[4,5-Dimethoxy-3-(N-methylaminocarbonylmethyleneoxy)phenyl]-5-fluoro-N4-(3-oxo-2H,4H-benzo[1,4]oxazin-6-yl)-2,4-pyrimidinediamine]	110 nM	–
CCc1cc(Nc2ncc(F)c(Nc3ccc4c(c3)NC(=O)CS4)n2)cc(C#N)c1Cl [II-23, N2-(4-Chloro-3-cyano-5-ethylphenyl)-5-fluoro-N4-(3-oxo-2H,4H-benzo[1,4]thiazin-6-yl)-2,4-pyrimidinediamine]	–	174 nM
CCc1cc(Nc2ncc(F)c(Nc3ccc4c(c3)NC(=O)C(F)(F)O4)n2)cc(C#N)c1Cl [II-24, N2-(4-Chloro-3-cyano-5-ethylphenyl)-N4-(2,2-difluoro-3-oxo-4H-benzo[1,4]oxazin-6-yl)-5-fluoro-2,4-pyrimidinediamine]	–	1740 nM
CCc1cc(Nc2ncc(F)c(Nc3ccc4c(c3)NC(=O)C(C)(C)O4)n2)cc(C#N)c1Cl [II-25, N2-(4-Chloro-3-cyano-5-ethylphenyl)-N4-(2,2-dimethyl-3-oxo-4H-benzo[1,4]oxazin-6-yl)-5-fluoro-2,4-pyrimidinediamine]	–	1430 nM
CCc1cc(Nc2ncc(F)c(Nc3ccc4c(c3)NC(=O)CO4)n2)cc(C#N)c1Cl [II-27, N2-(4-Chloro-3-cyano-5-ethylphenyl)-5-fluoro-N4-(3-oxo-2H,4H-benzo[1,4]oxazin-6-yl)-2,4-pyrimidinediamine]	–	4820 nM
Cc1cnc(Nc2cccc(C(N)=O)c2)nc1Nc1ccc2c(c1)CCC(=O)N2C [II-28, N2-(3-Aminocarbonylphenyl)-5-methyl-N4-(1-methyl-2-oxo-1,2,3,4-tetrahydroquinolin-6-yl)-2,4-pyrimidinediamine]	–	899 nM
Cc1cnc(Nc2ccc(C(N)=O)cc2)nc1Nc1ccc2c(c1)CCC(=O)N2C [II-29, N2-(4-Aminocarbonylphenyl)-5-methyl-N4-(1-methyl-2-oxo-1,2,3,4-tetrahydroquinolin-6-yl)-2,4-pyrimidinediamine]	–	609 nM
CNC(=O)COc1cc(Nc2ncc(F)c(Nc3ccc4c(c3)NC(=O)C(F)(F)O4)n2)ccc1OC [II-34, N4-(2,2-Difluoro-3-oxo-4H-benzo[1,4]oxazin-6-yl)-5-fluoro-N2-[4-methoxy-3-(N-methylaminocarbonylmethoxy)phenyl]-2,4-pyrimidinediamine]	–	391 nM
CNC(=O)COc1cc(Nc2ncc(C)c(Nc3ccc4c(n3)NC(=O)C(C)(C)O4)n2)cc(OC)c1OC [II-35, N2-[3,4-Dimethoxy-5-(N-methylaminocarbonylmethoxy)phenyl]-N4-(2,2-dimethyl-3-oxo-4H-5-pyrido[1,4]oxazin-6-yl)-5-methyl-2,4-pyrimidinediamine]	87.3 nM	–
CNC(=O)COc1cccc(Nc2ncc(C)c(Nc3cnc4c(c3)OC(F)(F)C(=O)N4)n2)c1 [II-36, N4-(2,2-Difluoro-3-oxo-4H-5-pyrido[1,4]oxazin-7-yl)-5-methyl-N2-[3-(N-methylaminocarbonylmethyleneoxy)phenyl]-2,4-pyrimidinediamine]	3780 nM	–

Compound	IC50	IC50 (Homo sapiens, Ramos)
Cc1cnc(Nc2cccc(C(N)=O)c2)nc1Nc1ccc2c(c1)NC(=O)CO2 [II-38, N2-(3-Aminocarbonylphenyl)-N4-(3,4-dihydro-2H-3-oxo-4H-benz[1,4]oxazin-6-yl)-5-methyl-2,4-pyrimidinediamine]	177 nM	–
Cc1cnc(Nc2cccc(C(N)=O)c2)nc1Nc1ccc2c(n1)NC(=O)C(C)(C)O2 [II-40, N2-(3-Aminocarbonylphenyl)-N4-(2,2-dimethyl-3-oxo-4H-5-pyrido[1,4]oxazin-6-yl)-5-methyl-2,4-pyrimidinediamine]	163 nM	–
Cc1cnc(Nc2cccc(C(N)=O)c2)nc1Nc1ccc2c(n1)N(C)C(=O)C(C)(C)O2 [II-43, N2-(3-Aminocarbonylphenyl)-5-methyl-N4-(2,2,4-trimethyl-3-oxo-5-pyrido[1,4]oxazin-6-yl)-2,4-pyrimidinediamine]	229 nM	–
Cc1cnc(Nc2cccc(C(N)=O)c2)nc1Nc1ccc2c(c1)NC(=O)CS2 [II-44, N2-(3-Aminocarbonylphenyl)-N4-(3,4-dihydro-2H-3-oxo-4H-benz[1,4]thiazin-6-yl)-5-methyl-2,4-pyrimidinediamine]	189 nM	–
COc1ccc(Nc2nc(Nc3ccc4oc(C(=O)NCCN5CCOCC5)cc4c3)ncc2F)cc1Cl [III-1, N4-(3-Chloro-4-methoxyphenyl)-5-fluoro-N2-[2-(2-(N-morpholinyl)ethylaminocarbonyl)benzofuran-5-yl]-2,4-pyrimidinediamine]	–	150 nM
COc1cc(Nc2nc(Nc3ccc4oc(C(=O)NCCN5CCOCC5)cc4c3)ncc2F)ccc1Cl [III-2, N4-(4-Chloro-3-methoxyphenyl)-5-fluoro-N2-[2-(2-(N-morpholinyl)ethylaminocarbonyl)benzofuran-5-yl]-2,4-pyrimidinediamine]	–	144 nM
CC1(C)Oc2ccc(Nc3nc(Nc4ccc5c(c4)C(=O)NCC5)ncc3F)nc2NC1=O [IV-1, N4-[2,2-Dimethyl-3-oxo-4H-5-pyrido[1,4]oxazin-6-yl]-5-fluoro-N2-(I-oxo-1,2,3,4-tetrahydroisoquinolin-7-yl)-2,4-pyrimidinediamine]	–	287 nM
Cc1cnc(Nc2cnc3c(c2)OC(C)(C)C(=O)N3)nc1Nc1cnc2c(c1)OC(C)(C)C(=O)N2 [VII-1, N4,N2-Bis(2,2-Dimethyl-3-oxo[4H]-5-pyrido[1,4]oxazin-7-yl)-5-methyl-2,4-pyrimidinediamine]	–	2630 nM
Cc1cnc(Nc2cnc3c(c2)OCC(=O)N3)nc1Nc1cnc2c(c1)OCC(=O)N2 [VII-3, N4,N2-Bis(3-oxo[4H]-5-pyrido[1,4]oxazin-7-yl)-5-methyl-2,4-pyrimidinediamine]	–	195 nM
N2-(3-Cyanomethoxy-4,5-dimethoxyphenyl)-N4-(2,2-dimethyl-3-oxo-4H-5-pyrido[1,4]oxazin-6-yl)-5-fluoro-2,4-pyrimidinediamine [II-16]	213 nM	–
N2-(4-Chloro-3-cyano-5-ethyl phenyl)-N4-(2,2-dimethyl-3-oxo-4H-5-pyrido[1,4]oxazin-6-yl)-5-fluoro-2,4-pyrimidinediamine [II-26]	16100 nM	–
N2-(4-Cyanomethyl phenyl)-5-fluoro-N4-(5-methoxycarbonylthiophen-2-yl)-2,4-pyrimidinediamine [Compound I-122]	723 nM	–
N2-[1-(2-(N-Morpholinyl)ethylaminocarbonyl)-1H-indol-6-yl]-N4-[4-(2-propynyloxy)phenyl]-2,4-pyrimidinediamine [VI-2]	1010 nM	–
N2-[2,3-Dihydro-1-(2-(N-morpholinyl)ethylaminocarbonyl)-1H-indol-6-yl]-N4-[4-(2-propynyloxy)phenyl]-2,4-pyrimidinediamine [VI-1]	1010 nM	–
N4-(3-Chloro-4-methoxyphenyl)-N2-[1-(2-(N-morpholinyl)ethylaminocarbonyl)-1H-indol-6-yl]-2,4-pyrimidinediamine [VI-3]	645 nM	–
N4-(4-(1-Cyanoethoxy)-3,5-dimethyl phenyl]-5-fluoro-N2-[4-((4-methylpiperazin-1-yl)carbonyl)phenyl]-2,4-pyrimidinediamine [Compound I-98]	276 nM	–
N4-(4-Chloro-3-methoxyphenyl)-N2-[1-(2-(N-morpholinyl)ethylaminocarbonyl)-1H-indol-6-yl]-2,4-pyrimidinediamine [VI-4]	889 nM	–
